Experimental data as given in patent publication US20200352991A1, “POLYMER FILMS WITH ANTIMICROBIAL AGENTS” (The Trustees of Columbia University in the City of New York, priority 2017, published 2020).

Legend:
S. aureus = assay: Rapid kill test, 15 second time kill; type: cell-based; conditions: 100 ul of 104 S. aureus culture, 15 second time kill
[1] = test system: P. aeruginosa (ATCC 15442); assay: Zone of inhibition test of coated endotracheal tubes, modified Kirby-Bauer method; type: cell-based; conditions: coated endotracheal tube segments, 24 hours, ETT diameter (10 mm) is included
Procedure: Efficacy of the coated tubes was evaluated by zone of inhibition test against P. aeruginosa (ATCC 15442) after 24 hours.
Method: The anti-microbial efficacy of the coated endotracheal tube (ETT) was evaluated by zone of inhibition test against P. aeruginosa (ATCC 15442) according to the modified Kirby-Bauer method. Trypticase soy agar (TSA) plates were seeded with 0.3 mL of overnight grown bacterial culture diluted to 107 colony forming units (CFU) per mL.
Antimicrobial coated ETTs were cut into 0.5 cm segments and embedded vertically into the agar plate. Uncoated ETT segments were used as control. After 24 hours of incubation at 37° C., the diameters of zones of inhibition around the ETT segments, including the diameters of the ETT, were measured.

Row | SMILES | Log10 reduction (S. aureus) [Log10] | Zone of inhibition against P. aeruginosa [1] [mm]
1 | [H]/N=C(\N/C(=N/[H])NCCCCCCNC(=N)NC(=N)Nc1ccc(Cl)cc1)Nc1ccc(Cl)cc1 [Chlorhexidine (CHX, 0.3%), Chlorhexidine] | 4.51 | 20
2 | CC(=O)N[C@@H](CS)C(=O)O [N-acetyl cystein (NAC, 1%), N-acetyl cystein] | 0.34 | 0
